Where a name gives a salt, the structure may show the parent alone.
melting point	Structure (SMILES)
72 °C (dec.)	Cc1cc2c(s1)Nc1ccccc1N=C2N1CCN[C@@H](CCc2ccccc2Cl)C1 [Example 389, 10-((S)-3-[2-(2-Chloro-phenyl)-ethyl]-piperazin-l-yl)-2-methyl-4H-3-thia-4,9-diaza-benzo[f]azulene]
225 °C	Cc1cc2c(s1)Nc1ccccc1N=C2N1CCN(C)[C@@H](CCc2ccccc2)C1.Cl
93 to 96 °C	CC(C)(C)c1cc2c(s1)Nc1ccccc1N=C2N1CCN[C@@H](CCc2ccccc2)C1 [Example 445, (S)-2-tert-Butyl-10-(3-phenethyl-piperazin-1-yl)-4H-3-thia-4,9-diaza-benzo[f]azulene]
202 °C (dec.)	COc1ccccc1CC[C@H]1CN(C2=Nc3ccccc3Nc3sc(C)cc32)CCN1 (as salt: hydrochloride) [Example 181, 10-((S)-3-(2-(2-Methoxy-phenyl)-ethyl)-piperazin-1-yl)-2-methyl-4H-3-thia-4,9-diaza-benzo[f]azulene dihydrochloride]
203 °C (dec.)	Cc1cc2c(s1)Nc1ccccc1N=C2N1CCN(C)[C@@H](CCc2ccccc2F)C1 (as salt: hydrochloride) [Example 184, 10-((S)-3-(2-(2-Fluoro-phenyl)-ethyl)-4-methyl-piperazin-1-yl)-2-methyl-4H-3-thia-4,9-diaza-benzo[f]azulene dihydrochloride]
198 °C (dec.)	Cc1cc2c(s1)Nc1ccccc1N=C2N1CCN(C)[C@@H](CCc2ccoc2)C1.Cl.Cl
81 °C (dec.)	Cc1ccc2c(c1)Nc1ccccc1N=C2N1CCN[C@@H](CCc2cccc(F)c2)C1 [Example 577, 11-{(S)-3-[2-(3-Fluoro-phenyl)-ethyl]-piperazin-1-yl}-3-methyl-5H-dibenzo[b,e][1,4]diazepine]
190 °C	COc1ccc(CC[C@H]2CN(C3=Nc4ccccc4Nc4sc(C(C)C)nc43)CCN2C)cc1 (as salt: hydrochloride)
180 °C	CC(C)c1nc2c(s1)Nc1ccccc1N=C2N1CCN(C)[C@@H](CCc2cccc(F)c2)C1 (as salt: hydrochloride)
220 °C	Cc1nc2c(s1)Nc1ccccc1N=C2N1CCN(C)[C@@H](CCc2ccccc2)C1 (as salt: hydrochloride) (hydrate or solvate) [Example 461, (S)-2-Methyl-10-(4-methyl-3-phenethyl-piperazin-1-yl)-4H-3-thia-1,4,9-triaza-benzo[f]azulene dihydrochloride hemihydrate]
230 °C	Cc1nc2c(s1)Nc1ccccc1N=C2N1CCN[C@@H](CCc2ccccc2)C1 (as salt: hydrochloride) (hydrate or solvate) [Example 460, (S)-2-Methyl-10-(3-phenethyl-piperazin-1-yl)-4H-3-thia-1,4,9-triaza-benzo[f]azulene dihydrochloride hemihydrate]
210 °C	CC(C)c1nc2c(s1)Nc1ccccc1N=C2N1CCN(C)[C@@H](CCc2ccccc2)C1 (as salt: hydrochloride)
69 °C (dec.)	Cc1cc2c(s1)Nc1ccccc1N=C2N1CCN[C@@H](CCc2ccc(F)cc2F)C1 [Example 399, 10-((S)-3-[2-(2,4-Difluoro-phenyl)-ethyl]-piperazin-1-yl)-2-methyl-4H-3-thia-4,9-diaza-benzo[f]azulene]
213 °C (dec.)	COc1ccc(CC[C@H]2CN(C3=Nc4ccccc4Nc4sc(C)cc43)CCN2)cc1 (as salt: hydrochloride) [Example 179, 10-((S)-3-(2-(4-methoxy-phenyl)-ethyl)-piperazin-1-yl)-2-methyl-4H-3-thia-4,9-diaza-benzo[f]azulene dihydrochloride]
79 °C (dec.)	Cc1cc2c(s1)Nc1ccccc1N=C2N1CCN(C)[C@@H](CCc2ccc(Cl)cc2)C1 [Example 390, 10-((S)-3-[2-(4-Chloro-phenyl)-ethyl]-4-methyl-piperazin-1-yl)-2-methyl-4H-3-thia-4,9-diaza-benzo[f]azulene]
79 to 92 °C	Clc1ccc2c(c1)N=C(N1CCN[C@@H](Cc3ccccc3)C1)c1ccccc1N2 [Example 585, 11-(3-(S)-Benzyl-piperazin-1-yl)-8-chloro-5H-dibenzo[b,e][1,4]diazepine]
230 °C	CN1CCN(C2=Nc3ccccc3Nc3sc(C(C)(C)C)cc32)C[C@@H]1CCc1ccccc1 (as salt: hydrochloride)
200 °C (dec.)	COc1cccc(CC[C@H]2CN(C3=Nc4ccccc4Nc4sc(C)cc43)CCN2C)c1 (as salt: hydrochloride) [Example 186, 10-((S)-3-(2-(3-Methoxy-phenyl)-ethyl)-4-methyl-piperazin-1-yl)-2-methyl-4H-3-thia-4.9-diaza-benzo[f]azulene dihydrochloride]
209 °C (dec.)	Cc1cc2c(s1)Nc1ccccc1N=C2N1CCN(C)[C@@H](CCc2ccc3ccccc3c2)C1 (as salt: hydrochloride)
185 °C	COc1ccccc1C[C@H]1CN(C2=Nc3ccccc3Nc3sc(C)nc32)CCN1C (as salt: hydrochloride)
239 °C (dec.)	COc1ccc(CC[C@H]2CN(C3=Nc4ccccc4Nc4sc(C)cc43)CCN2C)cc1 (as salt: hydrochloride) [Example 185, 10-((S)-3-(2-(4-Methoxy-phenyl)-ethyl)-4-methyl-piperazin-1-yl)-2-methyl-4H-3-thia-4,9-diaza-benzo[f]azulene dihydrochloride]
240 °C	Cc1nc2c(s1)Nc1ccccc1N=C2N1CCN(C)[C@@H](Cc2ccccc2)C1 (as salt: hydrochloride)
228 °C	CC(C)c1nc2c(s1)Nc1ccccc1N=C2N1CCN(C)[C@@H](CCc2ccc(F)cc2)C1 (as salt: hydrochloride) [Example 481, (S)-10-{3-[2-(4-Fluoro-phenyl)-ethyl]-4-methyl-piperazin-1-yl}-2-isopropyl-4H-3-thia-1,4,9-triaza-benzo[f]azulene dihydrochloride]
68 to 74 °C (dec.)	Cc1cc2c(s1)Nc1ccccc1N=C2N1CCN[C@@H](CCc2cccc(Cl)c2)C1 [Example 387, 10-((S)-3-[2-(3-Chloro-phenyl)-ethyl]-piperazin-1-yl)-2-methyl-4H-3-thia-4,9-diaza-benzo[f]azulene]
209 °C (dec.)	Cc1cc2c(s1)Nc1ccccc1N=C2N1CCN[C@@H](CCc2ccccc2F)C1 (as salt: hydrochloride) [Example 178, 10-((S)-3-(2-(2-Fluoro-phenyl)-ethyl)-piperazin-1-yl)-2-methyl-4H-3-thia-4,9-diaza-benzo[f]azulene dihydrochloride]
68 °C (dec.)	Cc1cc2c(s1)Nc1ccccc1N=C2N1CCN(C)[C@@H](CCc2ccccc2C(F)(F)F)C1 [Example 397, 10-((S)-3-[2-(2-Trifluoromethyl-phenyl)-ethyl]-4-methyl-piperazin-1-yl)-2-methyl-4H-3-thia-4,9-diaza-benzo[f]azulene]
230 °C	Cc1nc2c(s1)Nc1ccccc1N=C2N1CCN(C)[C@@H](CCc2ccc(F)cc2)C1 (as salt: hydrochloride)
72 °C (dec.)	Cc1cc2c(s1)Nc1ccccc1N=C2N1CCN(C)[C@@H](CCc2ccccc2Cl)C1 [Example 392, 10-((S)-3-[2-(2-Chloro-phenyl)-ethyl]-4-methyl-piperazin-1-yl)-2-methyl-4H-3-thia-4,9-diaza-benzo[f]azulene]
